Test results reported in patent US12077503B2, “Substituted cyclic amides and their use as herbicides” (FMC CORPORATION, priority 2015, dated 2024).

How the values were obtained:
Assay type in all cases: in vivo
[1] = test system: barnyardgrass (Echinochloa crus-galli); test: Test G Pre-Emergence Protocol; settings: Echinochloa crus-galli, pre-emergence, 312 h, evaluated after 13 days; for pest or weed control at 15.625 g/ha: 15.625 g ai/ha, read-out: Barnyard grass damage rating (100=total damage to plant; 0=no damage to plant); for pest or weed control at 62.5 g/ha: 62.5 g ai/ha, 100=total damage to plant, 0=no damage to plant, read-out: plant damage rating, Barnyardgrass; for pest or weed control at 250 g/ha: 250 g ai/ha, read-out: Barnyardgrass damage rating (100=total damage to plant; 0=no damage to plant)
Method: (§1) Seeds of corn (Zea mays), giant foxtail (Setaria faberi), barnyardgrass (Echinochloa crus-galli), ivy-leaved morning glory (Ipomoea hederacea), redroot pigweed (Amaranthus retroflexus) and velvetleaf (Abutilon theophrasti) were sown in standard soil in pots. After cultivation for one day under controlled conditions in a glasshouse (at 24/16° C., day/night; 14 hours light; 65% humidity), the plants were sprayed with an aqueous spray solution derived from the formulation of the technical active ingredient in acetone/water (50:50) solution containing 0.5% Tween 20 (polyoxyethylene sorbitan monolaurate, CAS RN 9005-64-5) to give a final dose of 15.625, 62.5 or 250 g/ha of test compound.
(§2) The test plants were then grown on under controlled conditions in a glasshouse (at 24/16° C., day/night; 14 hours light; 65% humidity) and watered twice daily. After 13 days the test was evaluated (100=total damage to plant; 0=no damage to plant). A dash (-) means no test result.

corn (Zea mays) [2] = test: Test G Pre-Emergence Protocol; settings: Zea mays, pre-emergence, 312 h, evaluated after 13 days; for plant injury at 15.625 g/ha: 15.625 g ai/ha; for plant injury at 15.625 g/ha / plant injury at 250 g/ha: read-out: Corn damage rating (100=total damage to plant; 0=no damage to plant); for plant injury at 62.5 g/ha: 62.5 g ai/ha, 100=total damage to plant, 0=no damage to plant, read-out: plant damage rating, Corn; for plant injury at 250 g/ha: 250 g ai/ha
Method: as §1, §2

[3] = test system: giant foxtail (Setaria faberi); test: Test G Pre-Emergence Protocol; settings: Setaria faberi, pre-emergence, 312 h, evaluated after 13 days; for pest or weed control at 15.625 g/ha: 15.625 g ai/ha; for pest or weed control at 15.625 g/ha / pest or weed control at 250 g/ha: read-out: Foxtail, Giant damage rating (100=total damage to plant; 0=no damage to plant); for pest or weed control at 62.5 g/ha: 62.5 g ai/ha, 100=total damage to plant, 0=no damage to plant, read-out: plant damage rating, Foxtail, Giant; for pest or weed control at 250 g/ha: 250 g ai/ha
Method: as §1, §2

[4] = test system: ivy-leaved morning glory (Ipomoea hederacea); test: Test G Pre-Emergence Protocol; settings: Ipomoea, pre-emergence, 312 h, evaluated after 13 days; for pest or weed control at 62.5 g/ha: 62.5 g ai/ha, 100=total damage to plant, 0=no damage to plant, read-out: plant damage rating, Morningglory, Ivy-leaved; for pest or weed control at 250 g/ha: 250 g ai/ha, read-out: Morningglory, Ivy-leaved damage rating (100=total damage to plant; 0=no damage to plant)
Method: as §1, §2

[5] = test system: redroot pigweed (Amaranthus retroflexus); test: Test G Pre-Emergence Protocol; settings: Amaranthus retroflexus, pre-emergence, 312 h, evaluated after 13 days; for pest or weed control at 15.625 g/ha: 15.625 g ai/ha; for pest or weed control at 15.625 g/ha / pest or weed control at 250 g/ha: read-out: Pigweed, Redroot damage rating (100=total damage to plant; 0=no damage to plant); for pest or weed control at 250 g/ha: 250 g ai/ha
Method: as §1, §2

[6] = test system: velvetleaf (Abutilon theophrasti); test: Test G Pre-Emergence Protocol; settings: Abutilon theophrasti, pre-emergence, 312 h, evaluated after 13 days; for pest or weed control at 15.625 g/ha: 15.625 g ai/ha; for pest or weed control at 15.625 g/ha / pest or weed control at 250 g/ha: read-out: Velvetleaf damage rating (100=total damage to plant; 0=no damage to plant); for pest or weed control at 62.5 g/ha: 62.5 g ai/ha, 100=total damage to plant, 0=no damage to plant, read-out: plant damage rating, Velvetleaf; for pest or weed control at 250 g/ha: 250 g ai/ha
Method: as §1, §2

[7] = test system: barnyardgrass (Echinochloa crus-galli); test: Test G Post-Emergence Protocol; settings: Echinochloa crus-galli, post-emergence, 312 h; for pest or weed control at 15.625 g/ha: 15.625 g ai/ha, evaluated after 13 days (100=total damage to plant; 0=no damage to plant), read-out: Barnyardgrass damage rating; for pest or weed control at 62.5 g/ha: 62.5 g ai/ha, read-out: Barnyardgrass damage rating (100=total damage to plant; 0=no damage to plant); for pest or weed control at 62.5 g/ha / pest or weed control at 250 g/ha: evaluated after 13 days; for pest or weed control at 250 g/ha: 250 g ai/ha, read-out: damage to plant, Barnyardgrass (100=total damage to plant; 0=no damage to plant)
Method: as §1, with “8 days” for “one day”
as §2

corn (Zea mays) [8] = test: Test G Post-Emergence Protocol; settings: Zea mays, post-emergence, 312 h; for plant injury at 15.625 g/ha: 15.625 g ai/ha, evaluated after 13 days (100=total damage to plant; 0=no damage to plant), read-out: Corn damage rating; for plant injury at 62.5 g/ha: 62.5 g ai/ha, read-out: Corn damage rating (100=total damage to plant; 0=no damage to plant); for plant injury at 62.5 g/ha / plant injury at 250 g/ha: evaluated after 13 days; for plant injury at 250 g/ha: 250 g ai/ha, read-out: damage to plant, Corn (100=total damage to plant; 0=no damage to plant)
Method: as §1, with “8 days” for “one day”
as §2

[9] = test system: giant foxtail (Setaria faberi); test: Test G Post-Emergence Protocol; settings: Setaria faberi, post-emergence, 312 h; for pest or weed control at 15.625 g/ha: 15.625 g ai/ha, evaluated after 13 days (100=total damage to plant; 0=no damage to plant), read-out: Foxtail, Giant damage rating; for pest or weed control at 62.5 g/ha: 62.5 g ai/ha, read-out: Foxtail, Giant damage rating (100=total damage to plant; 0=no damage to plant); for pest or weed control at 62.5 g/ha / pest or weed control at 250 g/ha: evaluated after 13 days; for pest or weed control at 250 g/ha: 250 g ai/ha, read-out: damage to plant, Foxtail, Giant (100=total damage to plant; 0=no damage to plant)
Method: as §1, with “8 days” for “one day”
as §2

[10] = test system: ivy-leaved morning glory (Ipomoea hederacea); test: Test G Post-Emergence Protocol; settings: Ipomoea, post-emergence, 312 h; for pest or weed control at 15.625 g/ha: 15.625 g ai/ha, evaluated after 13 days (100=total damage to plant; 0=no damage to plant), read-out: Morningglory, Ivy-leaved damage rating; for pest or weed control at 62.5 g/ha: 62.5 g ai/ha, read-out: Morningglory, Ivy-leaved damage rating (100=total damage to plant; 0=no damage to plant); for pest or weed control at 62.5 g/ha / pest or weed control at 250 g/ha: evaluated after 13 days; for pest or weed control at 250 g/ha: 250 g ai/ha, read-out: damage to plant, Morningglory, Ivy-leaved (100=total damage to plant; 0=no damage to plant)
Method: as §1, with “8 days” for “one day”
as §2

[11] = test system: redroot pigweed (Amaranthus retroflexus); test: Test G Post-Emergence Protocol; settings: Amaranthus retroflexus, post-emergence, 312 h; for pest or weed control at 15.625 g/ha: 15.625 g ai/ha, evaluated after 13 days (100=total damage to plant; 0=no damage to plant), read-out: Pigweed, Redroot damage rating; for pest or weed control at 62.5 g/ha: 62.5 g ai/ha, read-out: Pigweed, Redroot damage rating (100=total damage to plant; 0=no damage to plant); for pest or weed control at 62.5 g/ha / pest or weed control at 250 g/ha: evaluated after 13 days; for pest or weed control at 250 g/ha: 250 g ai/ha, read-out: damage to plant, Pigweed, Redroot (100=total damage to plant; 0=no damage to plant)
Method: as §1, with “8 days” for “one day”
as §2

[12] = test system: velvetleaf (Abutilon theophrasti); test: Test G Post-Emergence Protocol; settings: Abutilon theophrasti, post-emergence, 312 h; for pest or weed control at 15.625 g/ha: 15.625 g ai/ha, evaluated after 13 days (100=total damage to plant; 0=no damage to plant), read-out: Velvetleaf damage rating; for pest or weed control at 62.5 g/ha: 62.5 g ai/ha, read-out: Velvetleaf damage rating (100=total damage to plant; 0=no damage to plant); for pest or weed control at 62.5 g/ha / pest or weed control at 250 g/ha: evaluated after 13 days; for pest or weed control at 250 g/ha: 250 g ai/ha, read-out: damage to plant, Velvetleaf (100=total damage to plant; 0=no damage to plant)
Method: as §1, with “8 days” for “one day”
as §2

CN1C[C@H](c2ccc(C(F)(F)F)cc2)[C@@H](C(=O)Nc2ccccc2S(C)(=O)=O)C1=O (racemic) [Compound 1459]
60%: pest or weed control at 62.5 g/ha [1] | pest or weed control at 250 g/ha [1] | pest or weed control at 62.5 g/ha [3] | pest or weed control at 250 g/ha [5] | pest or weed control at 62.5 g/ha [9] | pest or weed control at 250 g/ha [9]
30%: pest or weed control at 15.625 g/ha [11]
80%: pest or weed control at 250 g/ha [3]
40%: pest or weed control at 15.625 g/ha [3] | pest or weed control at 62.5 g/ha [11] | pest or weed control at 250 g/ha [11]
10%: pest or weed control at 62.5 g/ha [7] | plant injury at 15.625 g/ha (corn (Zea mays) [8]) | plant injury at 62.5 g/ha (corn (Zea mays) [8]) | plant injury at 250 g/ha (corn (Zea mays) [8]) | pest or weed control at 15.625 g/ha [9]
20%: pest or weed control at 15.625 g/ha [1] | pest or weed control at 250 g/ha [7] | pest or weed control at 250 g/ha [10]
0%: plant injury at 15.625 g/ha (corn (Zea mays) [2]) | plant injury at 62.5 g/ha (corn (Zea mays) [2]) | plant injury at 250 g/ha (corn (Zea mays) [2]) | pest or weed control at 15.625 g/ha ([4]; 15.625 g ai/ha, read-out: Morning-glory, Ivy-leaved damage rating (100=total damage to plant; 0=no damage to plant)) | pest or weed control at 62.5 g/ha [4] | pest or weed control at 250 g/ha [4] | pest or weed control at 15.625 g/ha [5] | pest or weed control at 15.625 g/ha [6] | pest or weed control at 62.5 g/ha [6] | pest or weed control at 250 g/ha [6] | pest or weed control at 15.625 g/ha [7] | pest or weed control at 15.625 g/ha [10] | pest or weed control at 62.5 g/ha [10] | pest or weed control at 15.625 g/ha [12] | pest or weed control at 62.5 g/ha [12] | pest or weed control at 250 g/ha [12]

Cc1conc1NC(=O)[C@@H]1C(=O)N(C)C[C@H]1c1ccc(C(F)(F)F)cc1 (racemic) [Compound 1553]
0%: pest or weed control at 15.625 g/ha [1] | pest or weed control at 62.5 g/ha [1] | pest or weed control at 250 g/ha [1] | plant injury at 15.625 g/ha (corn (Zea mays) [2]) | plant injury at 62.5 g/ha (corn (Zea mays) [2]) | plant injury at 250 g/ha (corn (Zea mays) [2]) | pest or weed control at 15.625 g/ha [3] | pest or weed control at 62.5 g/ha [3] | pest or weed control at 250 g/ha [3] | pest or weed control at 62.5 g/ha [4] | pest or weed control at 250 g/ha [4] | pest or weed control at 15.625 g/ha [5] | pest or weed control at 62.5 g/ha ([5]; 62.5 g ai/ha, 100=total damage to plant, 0=no damage to plant, read-out: plant damage rating, Pigweed, Redroot) | pest or weed control at 250 g/ha [5] | pest or weed control at 15.625 g/ha [6] | pest or weed control at 62.5 g/ha [6] | pest or weed control at 250 g/ha [6] | pest or weed control at 15.625 g/ha [7] | pest or weed control at 62.5 g/ha [7] | pest or weed control at 250 g/ha [7] | plant injury at 15.625 g/ha (corn (Zea mays) [8]) | plant injury at 62.5 g/ha (corn (Zea mays) [8]) | plant injury at 250 g/ha (corn (Zea mays) [8]) | pest or weed control at 15.625 g/ha [9] | pest or weed control at 62.5 g/ha [9] | pest or weed control at 250 g/ha [9] | pest or weed control at 15.625 g/ha [10] | pest or weed control at 62.5 g/ha [10] | pest or weed control at 250 g/ha [10] | pest or weed control at 15.625 g/ha [11] | pest or weed control at 62.5 g/ha [11] | pest or weed control at 250 g/ha [11] | pest or weed control at 15.625 g/ha [12] | pest or weed control at 62.5 g/ha [12] | pest or weed control at 250 g/ha [12]
